These results are taken from patent publication US12497370B2, “Isoxazoline derivatives” (Elanco Tiergesundheit AG, priority 2019, dated 2025).

The structures appear in SMILES notation. Where two headings read alike, the source gives them in different places.

The test system of data set [1] is fleas (Ctenocephalides felis). In words: In vitro evaluation of ingestion activity against fleas. Conditions: flea ingestion test, compound in organic bovine blood (0.5% DMSO), adult fleas, percent mortality between 2 h and 48 h post infestation, read-out: EC50 (the source's name). As to the method:
In Vitro Evaluation of Ingestion Activity Against Fleas (Ctenocephalides felis)
For flea ingestion tests, serial dilutions of the compound stock were performed using DMSO to achieve the desired range for EC50 and EC90 determination. An aliquot of each compound dilution was added to organic bovine blood with a final DMSO concentration of 0.5% and placed in an artificial feeding container. Fipronil is included to serve as a positive control. Ten newly emerged unfed adult fleas, 0-7 days old Ctenocephalides felis, from a laboratory colony, were aspirated into each vial or cage. The cages for flea ingestion assays were held in a temperature-controlled artificial feeding apparatus to allow continual access to organic bovine blood containing the desired concentration of compound. Fresh aliquots of compound-spiked bovine blood were provided daily for the duration of the study. Fleas were evaluated for percent mortality at various time points between 2 h and 48 h post infestation. Fleas showing normal movement and/or jumping ability were considered viable and those showing no movement after tapping the vials were scored as dead.

The nature of data set [2]: PK determination following administration to beagle dogs. Format: in vivo. Conditions: dog. As to the method: PK Determination Following Administration to Beagle Dogs
Behavior of single oral or intravenous dose of the desired compound was assessed in beagle dogs. The animals (n=6) received the compound by oral gavage (3 or 10 mg/kg) or intravenous dose (1 or 2 mg/kg). Blood samples were collected predose and at 0.25, 0.5, 1, 2, 4, 8, 24, 48, 72, 96, 168, 336, 504, 672, 1008, 1344, 1680, 2016, 2352, 2688, 2856 and 3024 h postdose. A portion of each whole blood sample was processed to plasma. Test article concentrations in plasma and whole blood were determined using LC-MS/MS.

The mark [3] stands for this setting: in vivo, beagle dogs, single oral gavage (3 or 10 mg/kg) or intravenous dose (1 or 2 mg/kg), LC-MS/MS, read-out: Half-life (converted).
The mark [4] stands for this setting: in vivo, beagle dogs, single oral gavage (3 or 10 mg/kg) or intravenous dose (1 or 2 mg/kg), LC-MS/MS, read-out: Plasma clearance (converted).

For `Cc1cc(C2=NOC(c3cc(C(F)(F)F)cc(Cl)c3F)(C(F)(F)F)C2)ccc1C(=O)NCC1(C#N)CC1` (single isomer, unassigned) [Example 3.77, N-[(1-cyanocyclopropyl)methyl]-2-methyl-4-[(5R or S)-5-[3-chloro-2-fluoro-5-(trifluoromethyl)phenyl]-5-(trifluoromethyl)-4H-isoxazol-3-yl]benzamide], the LC50 in data set [1] was less than 1 µg/mL.

As to `Cc1cc(C2=NOC(c3cc(C(F)(F)F)cc(Cl)c3F)(C(F)(F)F)C2)ccc1C(=O)N[C@@H]1CCN(CC(F)(F)F)C1` (single isomer, unassigned) [Example 3.80, 4-[(5S or R)-5-[3-chloro-2-fluoro-5-(trifluoromethyl)phenyl]-5-(trifluoromethyl)-4H-isoxazol-3-yl]-2-methyl-N-[(3R)-1-(2,2,2-trifluoroethyl)pyrrolidin-3-yl]benzamide], in data set [1], the LC50 is less than 1 µg/mL.

On to `Cc1cc(C2=NOC(c3cc(C(F)(F)F)cc(Cl)c3F)(C(F)(F)F)C2)ccc1C(=O)Nc1cccc(C#N)c1` (single isomer, unassigned) [Example 3.81, N-(3-cyanophenyl)-2-methyl-4-[(5S or R)-5-[3-chloro-2-fluoro-5-(trifluoromethyl)phenyl]-5-(trifluoromethyl)-4H-isoxazol-3-yl]benzamide], for which, in data set [1], the LC50 was less than 3 µg/mL.

Take `Cc1cc(C2=NOC(c3cc(C(F)(F)F)cc(Cl)c3F)(C(F)(F)F)C2)ccc1C(=O)NCC1(S(C)(=O)=O)CC1` (single isomer, unassigned) [Example 3.83, 2-methyl-N-[(1-methylsulfonylcyclopropyl)methyl]-4-[(5R or S)-5-[3-chloro-2-fluoro-5-(trifluoromethyl)phenyl]-5-(trifluoromethyl)-4H-isoxazol-3-yl]benzamide]: the LC50 in data set [1] is less than 1 µg/mL.

As to `Cc1cc(C2=NOC(c3cc(C(F)(F)F)cc(Cl)c3F)(C(F)(F)F)C2)ccc1C(=O)N[C@@H]1CNC(=O)C1` (single isomer, unassigned) [Example 3.84, 4-[(5R or S)-5-[3-chloro-2-fluoro-5-(trifluoromethyl)phenyl]-5-(trifluoromethyl)-4H-isoxazol-3-yl]-2-methyl-N-[(3S)-5-oxopyrrolidin-3-yl]benzamide], the LC50 in data set [1] was less than 1 µg/mL.

For the compound `Cc1cc(C2=NOC(c3cc(C(F)(F)F)cc(Cl)c3F)(C(F)(F)F)C2)ccc1C(=O)N[C@H]1CNC(=O)C1` (single isomer, unassigned) [Example 3.85, 4-[(5R or S)-5-[3-chloro-2-fluoro-5-(trifluoromethyl)phenyl]-5-(trifluoromethyl)-4H-isoxazol-3-yl]-2-methyl-N-[(3R)-5-oxopyrrolidin-3-yl]benzamide], the LC50 in data set [1] was less than 1 µg/mL.

`CCN1C[C@@H](NC(=O)c2ccc(C3=NOC(c4cc(C(F)(F)F)cc(Cl)c4F)(C(F)(F)F)C3)cc2C)CC1=O` (single isomer, unassigned) [Example 3.86, 4-[(5R or S)-5-[3-chloro-2-fluoro-5-(trifluoromethyl)phenyl]-5-(trifluoromethyl)-4H-isoxazol-3-yl]-N-[(3S)-1-ethyl-5-oxo-pyrrolidin-3-yl]-2-methyl-benzamide]: in data set [1], the LC50 is less than 1 µg/mL.

With `CCN1C[C@H](NC(=O)c2ccc(C3=NOC(c4cc(C(F)(F)F)cc(Cl)c4F)(C(F)(F)F)C3)cc2C)CC1=O` (single isomer, unassigned) [Example 3.87, 4-[(5R or S)-5-[3-chloro-2-fluoro-5-(trifluoromethyl)phenyl]-5-(trifluoromethyl)-4H-isoxazol-3-yl]-N-[(3R)-1-ethyl-5-oxo-pyrrolidin-3-yl]-2-methyl-benzamide], in data set [1], the LC50 was less than 1 µg/mL.

In the case of `Cc1cc(C2=NO[C@@](c3cc(C(F)(F)F)cc(Cl)c3F)(C(F)(F)F)C2)ccc1C(=O)N[C@@H]1CC[C@H](C#N)C1` (single isomer, unassigned) [Example 3.90, 4-[(5S or R)-5-[3-chloro-2-fluoro-5-(trifluoromethyl)phenyl]-5-(trifluoromethyl)-4H-isoxazol-3-yl]-N-[cis-3-cyanocyclopentyl]-2-methyl-benzamide], the LC50 in data set [1] was less than 1 µg/mL.

With `Cc1cc(C2=NOC(c3cc(C(F)(F)F)cc(Cl)c3F)(C(F)(F)F)C2)ccc1C(=O)N[C@H]1CC[C@@H](C#N)CC1` (single isomer, unassigned) [Example 3.91, N-(cis-4-cyanocyclohexyl)-2-methyl-4-[(5R or S)-5-[3-chloro-2-fluoro-5-(trifluoromethyl)phenyl]-5-(trifluoromethyl)-4H-isoxazol-3-yl]benzamide], the LC50 in data set [1] was less than 1 µg/mL.

On to `Cc1cc(C2=NOC(c3cc(C(F)(F)F)cc(Cl)c3F)(C(F)(F)F)C2)ccc1C(=O)N[C@H]1CC[C@H](C#N)CC1` (single isomer, unassigned) [Example 3.92, N-(trans-4-cyanocyclohexyl)-2-methyl-4-[(5R or S)-5-[3-chloro-2-fluoro-5-(trifluoromethyl)phenyl]-5-(trifluoromethyl)-4H-isoxazol-3-yl]benzamide], for which the LC50 in data set [1] was less than 3 µg/mL.

Take `Cc1cc(C2=NOC(c3cc(C(F)(F)F)cc(Cl)c3F)(C(F)(F)F)C2)ccc1C(=O)NC1(C)CSC1` (single isomer, unassigned) [Example 3.93, 2-methyl-N-(3-methylthietan-3-yl)-4-[(5R or S)-5-[3-chloro-2-fluoro-5-(trifluoromethyl)phenyl]-5-(trifluoromethyl)-4H-isoxazol-3-yl]benzamide]: in data set [1], the LC50 is less than 1 µg/mL.

As to `CS(=O)(=O)CC(=O)N1CC2(C1)OCc1cc(C3=NO[C@](c4cc(C(F)(F)F)cc(C(F)F)c4F)(C(F)(F)F)C3)ccc12` [1.1 or 1.2], the LC50 in data set [1] was less than 3 µg/mL. For the same compound, in data set [2] (beagle, in vivo), the clearance was 2.36 mL/h/kg and the half-life is 36 days.

As for `O=C(CNC(=O)c1ccc(C2=NOC(c3cc(C(F)(F)F)cc(Cl)c3F)(C(F)(F)F)C2)c2ccccc12)NCC(F)(F)F` (stereo not drawn) [2.1 or 2.2], the LC50 in data set [1] is less than 1 µg/mL. In data set [2] (beagle, in vivo), this compound showed a clearance of 2.31 mL/h/kg and a half-life of 45 days.

Turning to `Cc1cc(C2=NOC(c3cc(C(F)(F)F)cc(Cl)c3F)(C(F)(F)F)C2)ccc1C(=O)NCC(=O)NCC(F)(F)F` (stereo not drawn) [3.1 or 3.2], the LC50 in data set [1] was less than 1 µg/mL. Besides, in data set [2] (beagle, in vivo), the clearance is 2.55 mL/h/kg and the half-life was 50 days.

In data set [2] (beagle, in vivo), `Cc1cc(C2=NOC(c3cc(C(F)(F)F)cc(Cl)c3F)(C(F)(F)F)C2)sc1C(=O)NCC(=O)NCC(F)(F)F` (stereo not drawn) [4.1 or 4.2] gave a clearance of 2.36 mL/h/kg and a half-life of 44 days.

Take `O=C(CNC(=O)c1ccc(C2=NOC(c3cc(Cl)cc(C(F)(F)F)c3)(C(F)(F)F)C2)c2ccccc12)NCC(F)(F)F` (stereo not drawn) [afoxolaner, reference compound]: in data set [2] (setting [3]), the half-life was 15.5 days. For the same compound, the clearance in data set [2] (setting [4]) is 4.96 mL/h/kg.

As to `Cc1cc(C2=NOC(c3cc(Cl)cc(Cl)c3)(C(F)(F)F)C2)ccc1C(=O)NCC(=O)NCC(F)(F)F` (stereo not drawn) [fluralaner, reference compound], in data set [2] (setting [3]), the half-life was 12 to 15 days.

With `Cc1cc(C2=NO[C@@](c3cc(Cl)c(Cl)c(Cl)c3)(C(F)(F)F)C2)sc1C(=O)NCC(=O)NCC(F)(F)F` [lotilaner, reference compound], in data set [2] (setting [3]), the half-life was 25 days. Also, in data set [2] (plasma, beagle dogs, single oral gavage (3 or 10 mg/kg) or intravenous dose (1 or 2 mg/kg), LC-MS/MS, read-out: Plasma clearance (converted)), the clearance is 7.5 mL/h/kg.

With `CS(=O)(=O)CC(=O)N1CC2(C1)OCc1cc(C3=NO[C@@](c4cc(Cl)c(F)c(Cl)c4)(C(F)(F)F)C3)ccc12` [sarolaner, reference compound], in data set [2] (setting [3]), the half-life was 12 days. In addition, the clearance in data set [2] (setting [4]) was 7.21 mL/h/kg.

As a reminder, the half-life is how long it takes for the measured level to halve.
